Reference: patent US4865991A, “Methods for partitioning of organic flavor compounds” (priority 1987, dated 1989)
Read-outs that look alike come from different tables or passages of the source.

How the values were obtained:
[1] = HPLC determination of partition coefficients in acetonitrile phase systems
Procedure: In these tests, known organic flavor volatile compounds were added to 2 ml aliquots of 50:50 acetonitrile:water, 22° C., in 4 ml HPLC vials, mixed thoroughly and capped with polytetrafluoroethylene septum caps. […] The samples were injected (20 uL) into a continuous HPLC apparatus. […] The HPLC apparatus was a Waters WISP model 710B sample injector, 6000A pump, and 481 UV detector set at 210 nm (Waters Associates, Milford, MA). A Radiomatic Flo-One Beta unit was used for peak integration (Radiomatic Instruments, Inc., Tampa FL). An Alltech adsorbosphere C18 column, 5 micron, 250 mm×4.6 mm was used (Alltech Associates, Deerfield, IL) to achieve component separation in accordance with conventional HPLC processing. The mobile phase had the following composition: 45% acetonitrile, 55% water, 0.2% KH2 PO4, pH 3.0. The flow rate was 1.0 ml/minute. The vials were then placed in a freezer (-20° C.) for one hour. 250 uL of the resulting organic and aqueous phases were then placed in a limited volume insert vial, the sample injected and peak integrations acquired. The partition coefficient, P, was calculated by dividing the organic phase by the aqueous phase integration values.
To determine the time period appropriate for complete partitioning, four sulfur volatiles and 1-methionine were treated as above, except that samples were taken at different times up to 60 minutes FIGS. 2a, 2b and 3).

[2] = Binary acetonitrile/water cold phase extraction of caffeine from cola beverage; type: physicochemical; details: cola plus acetonitrile, -20° C. for 1 hour
Procedure: […]. The sample was shaken for 20 seconds and was chilled to -20° C. for 1 hour. 0.3 ml of the organic layer was then placed in an HPLC sampling vial. The HPLC system used was: a phenyl reversed phase column (Alltech Associates, Deerfield, Ill.) 250×4.6 mm, 5 micron. 25% acetonitrile, 75% water 0.2% w/v KH2 PO4, pH 3.0 mobile phase, 1.5 ml/min. flow rate 20 uL injection by the autosampler. UV detection at 210 nm.

[3] = Acetonitrile/water 1:1, 1 hr. at -20° C., organic phase divided by aqueous phase integration values
[4] = Acetonitrile/water/chloroform 5:5:1, 22° C., organic phase divided by aqueous phase integration values

Row | Compound | Partition Coefficient Ternary [1] | Partition Coefficient Binary ([1]; 60 min) | Partition Coefficient Binary [1, 3] | Partition Coefficient Ternary [1, 4] | extraction into the organic phase [2]
1 | OCCc1ccccc1 [2-phenyl ethanol] | 2.3 | 3.3 |  |  | 
2 | N[C@@H](Cc1ccccc1)C(=O)O [1-phenylalanine] |  |  | 0.1 | 0.3 | 
3 | S [Hydrogen sulfide] |  |  | 4.6 | 5.2 | 
4 | CCCC(=O)OCC [Ethyl Butyrate] | 17.6 | 14.3 |  |  | 
5 | Cn1c(=O)c2c(ncn2C)n(C)c1=O [Caffeine] |  |  |  |  | selectively extracted into the organic phase
6 | CCCCCCCC(=O)O [Caprylic acid] |  |  | 20.8 | 20.6 | 
7 | CSCC[C@H](N)C(=O)O [1-methionine] |  |  | 0.03 | 0.2 | 
8 | CCCCC(=O)OCC [Ethyl Valerate] |  |  | 25.9 | 25.6 | 
9 | CSC [Dimethyl sulfide] | 6.6 | 5.2 |  |  | 
10 | O=C1O[C@H]([C@@H](O)CO)[C@@H](O)[C@@H]1O [1-galactono-1,4-lactone] | 0.2 | 0.2 |  |  | 
